How the values were obtained:
Assay in all cases: post-emergence herbicidal activity, greenhouse
Assay type in all cases: in vivo
Barnyardgrass = tested on: Barnyardgrass
Procedure, shortened: (§1)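 Plants grown from seed or perennial propagules in greenhouse soil pans were sprayed at two to three weeks with compound solution or suspension containing about 0.4% emulsifier, at the stated application rates. Injury relative to untreated controls was scored at approximately two and four weeks after treatment on a post-emergence activity index.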

Canada Thistle = conditions: Table I, 4 WAT
Procedure, shortened: as §1

Cocklebur = tested on: Cocklebur
Procedure, shortened: as §1

Crabgrass = conditions: Table II
Procedure, shortened: as §1

Downy Brome = tested on: Downy Brome
Procedure, shortened: as §1

Hemp Sesbania = conditions: Table II
Procedure, shortened: as §1

Johnsongrass = conditions: Table I, 4 WAT
Procedure, shortened: as §1

Lambsquarters = tested on: Lambsquarters
Procedure, shortened: as §1

Morningglory = tested on: Morningglory
Procedure, shortened: as §1

Panicum Spp = conditions: Table II
Procedure, shortened: as §1

Quackgrass = conditions: Table I, 4 WAT
Procedure, shortened: as §1

Rice = conditions: Table II
Procedure, shortened: as §1

Smartweed = conditions: Table I, 4 WAT
Procedure, shortened: as §1

Sorghum = conditions: Table II
Procedure, shortened: as §1

Soybean = conditions: Table II
Procedure, shortened: as §1

Sugar Beet = conditions: Table II
Procedure, shortened: as §1

Velvetleaf = tested on: Velvetleaf
Procedure, shortened: as §1

Wheat = conditions: Table II
Procedure, shortened: as §1

Wild Buckwheat = conditions: Table II
Procedure, shortened: as §1

Yellow Nutsedge = conditions: Table I, 4 WAT
Procedure, shortened: as §1

## CC(C)SSN(CC#N)CP(=O)(Oc1ccccc1)Oc1ccccc1 [VI, Phosphonic acid, [[(cyanomethyl)[(1-methylethyl)-dithio]amino]methyl]-, diphenyl ester]
Barnyardgrass; Table I, 4 WAT, 5.6 kg/h
  post-emergence herbicidal activity index: 2 (50-74% control)
Barnyardgrass; Table I, 4 WAT, 11.2 kg/h
  post-emergence herbicidal activity index: 2 (50-74% control)
Barnyardgrass; Table II, 2 WAT, 1.12 kg/h
  post-emergence herbicidal activity index: 1 (25-49% control)
Barnyardgrass; Table II, 2 WAT, 5.6 kg/h
  post-emergence herbicidal activity index: 2 (50-74% control)
Barnyardgrass; Table II, 4 WAT, 0.28 kg/h
  post-emergence herbicidal activity index: 0 (0-24% control)
Barnyardgrass; Table II, 4 WAT, 1.12 kg/h
  post-emergence herbicidal activity index: 0 (0-24% control)
Barnyardgrass; Table II, 4 WAT, 5.6 kg/h
  post-emergence herbicidal activity index: 3 (75-99% control)
Canada Thistle; 5.6 kg/h
  post-emergence herbicidal activity index: 2 (50-74% control)
Canada Thistle; 11.2 kg/h
  post-emergence herbicidal activity index: 2 (50-74% control)
Cocklebur; Table I, 4 WAT, 5.6 kg/h
  post-emergence herbicidal activity index: 2 (50-74% control)
Cocklebur; Table I, 4 WAT, 11.2 kg/h
  post-emergence herbicidal activity index: 2 (50-74% control)
Cocklebur; Table II, 2 WAT, 1.12 kg/h
  post-emergence herbicidal activity index: 1 (25-49% control)
Cocklebur; Table II, 2 WAT, 5.6 kg/h
  post-emergence herbicidal activity index: 2 (50-74% control)
Cocklebur; Table II, 4 WAT, 0.28 kg/h
  post-emergence herbicidal activity index: 0 (0-24% control)
Cocklebur; Table II, 4 WAT, 1.12 kg/h
  post-emergence herbicidal activity index: 1 (25-49% control)
Cocklebur; Table II, 4 WAT, 5.6 kg/h
  post-emergence herbicidal activity index: 3 (75-99% control)
Crabgrass; 2 WAT, 1.12 kg/h
  post-emergence herbicidal activity index: 1 (25-49% control)
Crabgrass; 2 WAT, 5.6 kg/h
  post-emergence herbicidal activity index: 3 (75-99% control)
Crabgrass; 4 WAT, 0.28 kg/h
  post-emergence herbicidal activity index: 1 (25-49% control)
Crabgrass; 4 WAT, 1.12 kg/h
  post-emergence herbicidal activity index: 1 (25-49% control)
Crabgrass; 4 WAT, 5.6 kg/h
  post-emergence herbicidal activity index: 3 (75-99% control)
Downy Brome; Table I, 4 WAT, 5.6 kg/h
  post-emergence herbicidal activity index: 2 (50-74% control)
Downy Brome; Table I, 4 WAT, 11.2 kg/h
  post-emergence herbicidal activity index: 3 (75-99% control)
Downy Brome; Table II, 2 WAT, 1.12 kg/h
  post-emergence herbicidal activity index: 0 (0-24% control)
Downy Brome; Table II, 2 WAT, 5.6 kg/h
  post-emergence herbicidal activity index: 2 (50-74% control)
Downy Brome; Table II, 4 WAT, 0.28 kg/h
  post-emergence herbicidal activity index: 0 (0-24% control)
Downy Brome; Table II, 4 WAT, 1.12 kg/h
  post-emergence herbicidal activity index: 0 (0-24% control)
Downy Brome; Table II, 4 WAT, 5.6 kg/h
  post-emergence herbicidal activity index: 2 (50-74% control)
Hemp Sesbania; 2 WAT, 1.12 kg/h
  post-emergence herbicidal activity index: 0 (0-24% control)
Hemp Sesbania; 2 WAT, 5.6 kg/h
  post-emergence herbicidal activity index: 1 (25-49% control)
Hemp Sesbania; 4 WAT, 0.28 kg/h
  post-emergence herbicidal activity index: 0 (0-24% control)
Hemp Sesbania; 4 WAT, 1.12 kg/h
  post-emergence herbicidal activity index: 0 (0-24% control)
Hemp Sesbania; 4 WAT, 5.6 kg/h
  post-emergence herbicidal activity index: 1 (25-49% control)
Johnsongrass; 5.6 kg/h
  post-emergence herbicidal activity index: 3 (75-99% control)
Johnsongrass; 11.2 kg/h
  post-emergence herbicidal activity index: 3 (75-99% control)
Lambsquarters; Table I, 4 WAT, 5.6 kg/h
  post-emergence herbicidal activity index: 3 (75-99% control)
Lambsquarters; Table I, 4 WAT, 11.2 kg/h
  post-emergence herbicidal activity index: 4 (100% control)
Lambsquarters; Table II, 2 WAT, 1.12 kg/h
  post-emergence herbicidal activity index: 3 (75-99% control)
Lambsquarters; Table II, 2 WAT, 5.6 kg/h
  post-emergence herbicidal activity index: 3 (75-99% control)
Lambsquarters; Table II, 4 WAT, 0.28 kg/h
  post-emergence herbicidal activity index: 0 (0-24% control)
Lambsquarters; Table II, 4 WAT, 1.12 kg/h
  post-emergence herbicidal activity index: 3 (75-99% control)
Lambsquarters; Table II, 4 WAT, 5.6 kg/h
  post-emergence herbicidal activity index: 3 (75-99% control)
Morningglory; Table I, 4 WAT, 5.6 kg/h
  post-emergence herbicidal activity index: 2 (50-74% control)
Morningglory; Table I, 4 WAT, 11.2 kg/h
  post-emergence herbicidal activity index: 2 (50-74% control)
Morningglory; Table II, 2 WAT, 1.12 kg/h
  post-emergence herbicidal activity index: 1 (25-49% control)
Morningglory; Table II, 2 WAT, 5.6 kg/h
  post-emergence herbicidal activity index: 1 (25-49% control)
Morningglory; Table II, 4 WAT, 0.28 kg/h
  post-emergence herbicidal activity index: 0 (0-24% control)
Morningglory; Table II, 4 WAT, 1.12 kg/h
  post-emergence herbicidal activity index: 0 (0-24% control)
Morningglory; Table II, 4 WAT, 5.6 kg/h
  post-emergence herbicidal activity index: 1 (25-49% control)
Panicum Spp; 2 WAT, 1.12 kg/h
  post-emergence herbicidal activity index: 0 (0-24% control)
Panicum Spp; 2 WAT, 5.6 kg/h
  post-emergence herbicidal activity index: 1 (25-49% control)
Panicum Spp; 4 WAT, 0.28 kg/h
  post-emergence herbicidal activity index: 0 (0-24% control)
Panicum Spp; 4 WAT, 1.12 kg/h
  post-emergence herbicidal activity index: 0 (0-24% control)
Panicum Spp; 4 WAT, 5.6 kg/h
  post-emergence herbicidal activity index: 1 (25-49% control)
Quackgrass; 5.6 kg/h
  post-emergence herbicidal activity index: 0 (0-24% control)
Quackgrass; 11.2 kg/h
  post-emergence herbicidal activity index: 1 (25-49% control)
Rice; 2 WAT, 1.12 kg/h
  post-emergence herbicidal activity index: 0 (0-24% control)
Rice; 2 WAT, 5.6 kg/h
  post-emergence herbicidal activity index: 0 (0-24% control)
Rice; 4 WAT, 0.28 kg/h
  post-emergence herbicidal activity index: 0 (0-24% control)
Rice; 4 WAT, 1.12 kg/h
  post-emergence herbicidal activity index: 0 (0-24% control)
Rice; 4 WAT, 5.6 kg/h
  post-emergence herbicidal activity index: 0 (0-24% control)
Smartweed; 5.6 kg/h
  post-emergence herbicidal activity index: 2 (50-74% control)
Smartweed; 11.2 kg/h
  post-emergence herbicidal activity index: 2 (50-74% control)
Sorghum; 2 WAT, 1.12 kg/h
  post-emergence herbicidal activity index: 1 (25-49% control)
Sorghum; 2 WAT, 5.6 kg/h
  post-emergence herbicidal activity index: 2 (50-74% control)
Sorghum; 4 WAT, 0.28 kg/h
  post-emergence herbicidal activity index: 0 (0-24% control)
Sorghum; 4 WAT, 1.12 kg/h
  post-emergence herbicidal activity index: 1 (25-49% control)
Sorghum; 4 WAT, 5.6 kg/h
  post-emergence herbicidal activity index: 3 (75-99% control)
Soybean; 2 WAT, 1.12 kg/h
  post-emergence herbicidal activity index: 0 (0-24% control)
Soybean; 2 WAT, 5.6 kg/h
  post-emergence herbicidal activity index: 1 (25-49% control)
Soybean; 4 WAT, 0.28 kg/h
  post-emergence herbicidal activity index: 0 (0-24% control)
Soybean; 4 WAT, 1.12 kg/h
  post-emergence herbicidal activity index: 0 (0-24% control)
Soybean; 4 WAT, 5.6 kg/h
  post-emergence herbicidal activity index: 1 (25-49% control)
Sugar Beet; 2 WAT, 1.12 kg/h
  post-emergence herbicidal activity index: 0 (0-24% control)
Sugar Beet; 2 WAT, 5.6 kg/h
  post-emergence herbicidal activity index: 0 (0-24% control)
Sugar Beet; 4 WAT, 0.28 kg/h
  post-emergence herbicidal activity index: 0 (0-24% control)
Sugar Beet; 4 WAT, 1.12 kg/h
  post-emergence herbicidal activity index: 0 (0-24% control)
Sugar Beet; 4 WAT, 5.6 kg/h
  post-emergence herbicidal activity index: 1 (25-49% control)
Velvetleaf; Table I, 4 WAT, 5.6 kg/h
  post-emergence herbicidal activity index: 1 (25-49% control)
Velvetleaf; Table I, 4 WAT, 11.2 kg/h
  post-emergence herbicidal activity index: 2 (50-74% control)
Velvetleaf; Table II, 2 WAT, 1.12 kg/h
  post-emergence herbicidal activity index: 0 (0-24% control)
Velvetleaf; Table II, 2 WAT, 5.6 kg/h
  post-emergence herbicidal activity index: 1 (25-49% control)
Velvetleaf; Table II, 4 WAT, 0.28 kg/h
  post-emergence herbicidal activity index: 0 (0-24% control)
Velvetleaf; Table II, 4 WAT, 1.12 kg/h
  post-emergence herbicidal activity index: 1 (25-49% control)
Velvetleaf; Table II, 4 WAT, 5.6 kg/h
  post-emergence herbicidal activity index: 2 (50-74% control)
Wheat; 2 WAT, 1.12 kg/h
  post-emergence herbicidal activity index: 1 (25-49% control)
Wheat; 2 WAT, 5.6 kg/h
  post-emergence herbicidal activity index: 1 (25-49% control)
Wheat; 4 WAT, 0.28 kg/h
  post-emergence herbicidal activity index: 0 (0-24% control)
Wheat; 4 WAT, 1.12 kg/h
  post-emergence herbicidal activity index: 0 (0-24% control)
Wheat; 4 WAT, 5.6 kg/h
  post-emergence herbicidal activity index: 1 (25-49% control)
Wild Buckwheat; 2 WAT, 1.12 kg/h
  post-emergence herbicidal activity index: 0 (0-24% control)
Wild Buckwheat; 2 WAT, 5.6 kg/h
  post-emergence herbicidal activity index: 1 (25-49% control)
Wild Buckwheat; 4 WAT, 0.28 kg/h
  post-emergence herbicidal activity index: 0 (0-24% control)
Wild Buckwheat; 4 WAT, 1.12 kg/h
  post-emergence herbicidal activity index: 0 (0-24% control)
Wild Buckwheat; 4 WAT, 5.6 kg/h
  post-emergence herbicidal activity index: 1 (25-49% control)
Yellow Nutsedge; 5.6 kg/h
  post-emergence herbicidal activity index: 0 (0-24% control)
Yellow Nutsedge; 11.2 kg/h
  post-emergence herbicidal activity index: 3 (75-99% control)

## CCCCCCCCSSN(CC#N)CP(=O)(Oc1ccccc1)Oc1ccccc1 [II, Phosphonic acid, [[(cyanomethyl)(octyldithio)-amino]methyl]-, diphenyl ester]
Barnyardgrass; Table I, 4 WAT, 5.6 kg/h
  post-emergence herbicidal activity index: 1 (25-49% control)
Barnyardgrass; Table I, 4 WAT, 11.2 kg/h
  post-emergence herbicidal activity index: 2 (50-74% control)
Canada Thistle; 5.6 kg/h
  post-emergence herbicidal activity index: 1 (25-49% control)
Canada Thistle; 11.2 kg/h
  post-emergence herbicidal activity index: 1 (25-49% control)
Cocklebur; Table I, 4 WAT, 5.6 kg/h
  post-emergence herbicidal activity index: 2 (50-74% control)
Cocklebur; Table I, 4 WAT, 11.2 kg/h
  post-emergence herbicidal activity index: 2 (50-74% control)
Downy Brome; Table I, 4 WAT, 5.6 kg/h
  post-emergence herbicidal activity index: 1 (25-49% control)
Downy Brome; Table I, 4 WAT, 11.2 kg/h
  post-emergence herbicidal activity index: 0 (0-24% control)
Johnsongrass; 5.6 kg/h
  post-emergence herbicidal activity index: 3 (75-99% control)
Johnsongrass; 11.2 kg/h
  post-emergence herbicidal activity index: 2 (50-74% control)
Lambsquarters; Table I, 4 WAT, 5.6 kg/h
  post-emergence herbicidal activity index: 3 (75-99% control)
Lambsquarters; Table I, 4 WAT, 11.2 kg/h
  post-emergence herbicidal activity index: 3 (75-99% control)
Morningglory; Table I, 4 WAT, 5.6 kg/h
  post-emergence herbicidal activity index: 2 (50-74% control)
Morningglory; Table I, 4 WAT, 11.2 kg/h
  post-emergence herbicidal activity index: 2 (50-74% control)
Quackgrass; 5.6 kg/h
  post-emergence herbicidal activity index: 0 (0-24% control)
Quackgrass; 11.2 kg/h
  post-emergence herbicidal activity index: 1 (25-49% control)
Smartweed; 5.6 kg/h
  post-emergence herbicidal activity index: 0 (0-24% control)
Smartweed; 11.2 kg/h
  post-emergence herbicidal activity index: 1 (25-49% control)
Velvetleaf; Table I, 4 WAT, 5.6 kg/h
  post-emergence herbicidal activity index: 1 (25-49% control)
Velvetleaf; Table I, 4 WAT, 11.2 kg/h
  post-emergence herbicidal activity index: 1 (25-49% control)
Yellow Nutsedge; 5.6 kg/h
  post-emergence herbicidal activity index: 2 (50-74% control)
Yellow Nutsedge; 11.2 kg/h
  post-emergence herbicidal activity index: 2 (50-74% control)
